Measurements taken from patent publication US6872722B2, “Therapies for tissue damage resulting from ischemia” (Pfizer Inc, priority 2001, dated 2005).

- melting point: > 220 °C
Structure (SMILES): O=c1ccc(S(=O)(=O)c2cccc(Br)c2)n[nH]1 [Example 4I, 6-(3-Bromo-benzenesulfonyl)-2H-pyridazin-3-one]
